Data from patent US20110257168A1, “DERIVATIVES OF OXABISPIDINE AS NEURONAL NICOTINIC ACETYLCHOLINE RECEPTOR LIGANDS” (Targacept, Inc., priority 2008, published 2011).
Like-named read-outs stand apart in the source and are kept apart here.

What was measured:
[1] = target: human α4β2 (Homo sapiens, UniProt P17787+P43681); experiment: Competition binding to human α4β2 receptors in membrane preparations
Method: (§1) SH-EP1/human α4β2 (Eaton et al., 2003), SH-EP1/human α4β4 (Gentry et al., 2003), SH-EP1/α6β3β4α5 (Grinevich et al., 2005), TE671/RD and SH-SY5Y cell lines (obtained from Dr. Ron Lukas, Barrow Neurological Institute) were maintained in proliferative growth phase in Dulbecco's modified Eagle's medium (Gibco/BRL) with 10% horse serum (Gibco BRL), 5% fetal bovine serum (HyClone, Logan Utah), 1 mM sodium pyruvate, 4 mM L-glutamine. For maintenance of stable transfectants, the α4β2 and α4β4 cell media was supplemented with 0.25 mg/mL zeocin and 0.13 mg/mL hygromycin B. Selection was maintained for the α6β3β4α5 cells with 0.25 mg/mL of zeocin, 0.13 mg/mL of hygromycin B, 0.4 mg/mL of geneticin, and 0.2 mg/mL of blasticidin. HEK/human α7/RIC3 cells (obtained from J. Lindstrom, U. Pennsylvania) were maintained in proliferative growth phase in Dulbecco's modified Eagle's medium (Gibco/BRL) with 10% fetal bovine serum (HyClone, Logan Utah), 1 mM sodium pyruvate, 4 mM L-glutamine, 0.4 mg/mL geneticin; 0.2 mg/ml hygromycin B.
(§2) Preparation of membranes from rat tissues. Rat cortices were obtained from Analytical Biological Services, Incorporated (ABS, Wilmington, Del.). Tissues were dissected from female Sprague-Dawley rats, frozen and shipped on dry ice. Tissues were stored at −20° C. until needed for membrane preparation. Cortices from 10 rats were pooled and homogenized by Polytron (Kinematica GmbH, Switzerland) in 10 volumes (weight:volume) of ice-cold preparative buffer (KCl, 11 mM; KH2PO4, 6 mM; NaCl 137 mM; Na2HPO4 8 mM; HEPES (free acid), 20 mM; iodoacetamide, 5 mM; EDTA, 1.5 mM; 0.1 mM PMSF pH 7.4). The resulting homogenate was centrifuged at 40,000 g for 20 minutes at 4° C. and the resulting pellet was resuspended in 20 volumes of ice-cold water. After 60-minute incubation at 4° C., a new pellet was collected by centrifugation at 40,000 g for 20 minutes at 4° C. The final pellet was resuspended in preparative buffer and stored at −20° C. On the day of the assay, tissue was thawed, centrifuged at 40,000 g for 20 minutes and then resuspended in PBS (Dulbecco's Phosphate Buffered Saline, Life Technologies, pH 7.4) to a final concentration of 2-3 mg protein/mL. Protein concentrations were determined using the Pierce BCA Protein Assay kit (Pierce Biotechnology, Rockford, Ill.), with bovine serum albumin as the standard. Preparation of membranes from clonal cell lines. Cells were harvested in ice-cold PBS, pH 7.4, then homogenized with a polytron (Brinkmann Instruments, Westbury, N.Y.). Homogenates were centrifuged at 40,000 g for 20 minutes (4° C.). The pellet was resuspended in PBS and protein concentration determined using the Pierce BCA Protein Assay kit (Pierce Biotechnology, Rockford, Ill.).
(§3) Competition binding to receptors in membrane preparations. Binding to nicotinic receptors was assayed on membranes using standard methods adapted from published procedures (Lippiello and Fernandes, 1986; Davies et al., 1999). In brief, membranes were reconstituted from frozen stocks (approximately 0.2 mg protein) and incubated for 2 h on ice in […] assay buffer (PBS) in the presence of competitor compound (0.001 nM to […]) and radioligand. [^3H]-nicotine (L-(−)-[N-methyl-3H]-nicotine, 69.5 Ci/mmol, Perkin-Elmer Life Sciences) was used for human α4β2 binding studies. [^3H]-epibatidine (52 Ci/mmol, Perkin-Elmer Life Sciences) was used for binding studies at the other receptor subtypes. Incubation was terminated by rapid filtration on a multimanifold tissue harvester (Brandel, Gaithersburg, Md.) using GF/B filters presoaked in 0.33% polyethyleneimine (w/v) to reduce non-specific binding. Filters were washed 3 times and the radioactivity retained was determined by liquid scintillation counting.
(§4) Binding data analysis. Binding data were expressed as percent total control binding. Replicates for each point were averaged and plotted against the log of drug concentration. […]

[2] = target: T1, Human α7 (Homo sapiens, UniProt P36544); experiment: Competition binding to human α7 receptors in membrane preparations; conditions: membranes, [3H]-epibatidine competition; Ki by Cheng-Prusoff; read-out: Human α7 Ki
T1 construct: host or cells: HEK cells co-expressing RIC3
Method: as §1, §2, §3, §4

[3] = target: T2, Rat α4β2 (Rattus norvegicus, UniProt P09483+P12390); experiment: Competition binding to rat α4β2 receptors in membrane preparations
T2 construct: Preparation of membranes from rat tissues; Rat cortices were obtained from Analytical Biological Services; tissue Analytical Biological Services, Incorporated (ABS, Wilmington, Del.); host or cells: rat cortex membranes (female Sprague-Dawley)
Method: as §2, §3
Binding data analysis. Binding data were expressed as percent total control binding. Replicates for each point were averaged and plotted against the log of drug concentration. The IC50 (concentration of the compound that produces 50% inhibition of binding) was determined by least squares non-linear regression using GraphPad Prism software (GraphPAD, San Diego, Calif.). Ki was calculated using the Cheng-Prusoff equation (Cheng and Prusoff, 1973).

[4] = membranes, [3H]-nicotine competition, Ki by Cheng-Prusoff, read-out: human α4β2 Ki
[5] = membranes, [3H]-epibatidine competition, Ki by Cheng-Prusoff, read-out: Rat α4β2 Ki

Work on `CN1CC2CN(c3cccc(Cl)c3Cl)CC(C1)O2` yielded a Ki [1, 4] of 5200 nM.

Compound `FC1(F)Oc2ccc(N3CC4CNCC(C3)O4)cc2O1` [3-(2,2-difluorobenzo[d][1,3]dioxol-5-yl)-9-oxa-3,7-diazabicyclo[3.3.1]nonane] has a Ki [1, 4] of 700 nM and a Ki [2] of 90000 nM.

For `Clc1cccc(N2CC3CNCC(C2)O3)c1Cl` [3-(2,3-dichlorophenyl)-9-oxa-3,7-diazabicyclo[3.3.1]nonane], the Ki [1, 4] was 9600 nM.

With `Fc1cccc(N2CC3CNCC(C2)O3)c1F` [3-(2,3-difluorophenyl)-9-oxa-3,7-diazabicyclo[3.3.1]nonane] the Ki [1, 4] was 260 nM.

`CN1CC2CN(c3cnc(Br)nc3)CC(C1)O2` [3-(2-bromopyrimidin-5-yl)-7-methyl-9-oxa-3,7-diazabicyclo[3.3.1]nonane] was tested, and the Ki [1, 4] was 2000 nM.

In the case of `CN1CC2CN(c3cc(F)cc(F)c3)CC(C1)O2` [3-(3,5-difluorophenyl)-7-methyl-9-oxa-3,7-diazabicyclo[3.3.1]nonane], the Ki [3, 5] is reported as 510 nM and the Ki [1, 4] is reported as 86 nM.

For `Fc1cc(F)cc(N2CC3CNCC(C2)O3)c1` [3-(3,5-difluorophenyl)-9-oxa-3,7-diazabicyclo[3.3.1]nonane], the Ki [3] was 97 nM and the Ki [1, 4] was 27 nM.

For `COc1cccc(N2CC3CN(C)CC(C2)O3)c1` [3-(3-methoxyphenyl)-7-methyl-9-oxa-3,7-diazabicyclo[3.3.1]nonane], the Ki [1, 4] was 1600 nM.

`COc1cccc(N2CC3CNCC(C2)O3)c1` [3-(3-methoxyphenyl)-9-oxa-3,7-diazabicyclo[3.3.1]nonane] gave a Ki [3, 5] of 110 nM, a Ki [1, 4] of 33 nM and a Ki [2] of 800 nM.

`CN1CC2CN(c3cnccc3Cl)CC(C1)O2` [3-(4-chloropyridin-3-yl)-7-methyl-9-oxa-3,7-diazabicyclo[3.3.1]nonane] showed a Ki [1, 4] of 180 nM.

Compound `Clc1ccncc1N1CC2CNCC(C1)O2` [3-(4-chloropyridin-3-yl)-9-oxa-3,7-diazabicydo[3.3.1]nonane] has a Ki [1, 4] of 250 nM.

Compound `N#Cc1ccncc1N1CC2CNCC(C1)O2` [3-(4-cyanopyridin-3-yl)-9-oxa-3,7-diazabicyclo[3.3.1]nonane] has a Ki [1, 4] of 860 nM.

`COc1ccncc1N1CC2CNCC(C1)O2` [3-(4-methoxypyridin-3-yl)-9-oxa-3,7-diazabicyclo[3.3.1]nonane] was tested, and the Ki [3, 5] was 580 nM and the Ki [1, 4] was 120 nM.

Work on `CN1CC2CN(c3cncc(Oc4ccccc4Cl)c3)CC(C1)O2` [3-(5-(2-chlorophenoxy)pyridin-3-yl)-7-methyl-9-oxa-3,7-diazabicyclo[3.3.1]nonane] yielded a Ki [3, 5] of 1200 nM and a Ki [1, 4] of 84 nM.

In the case of `Clc1ccccc1Oc1cncc(N2CC3CNCC(C2)O3)c1` [3-(5-(2-chlorophenoxy)pyridin-3-yl)-9-oxa-3,7-diazabicyclo[3.3.1]nonane], the Ki [3, 5] is reported as 14 nM, the Ki [1] is reported as 3.6 nM and the Ki [2] is reported as 430 nM.

`FCCOc1cc(N2CC3CNCC(C2)O3)cnc1Cl` [3-(5-(2-fluoroethoxy)-6-chloropyridin-3-yl)-9-oxa-3,7-diazabicyclo[3.3.1]nonane] gave a Ki [3] of 0.41 nM, a Ki [1, 4] of 0.21 nM and a Ki [2] of 1600 nM.

`CN1CC2CN(c3cncc(Oc4ccc(Cl)c(Cl)c4)c3)CC(C1)O2` [3-(5-(3,4-dichlorophenoxy)pyridin-3-yl)-7-methyl-9-oxa-3,7-diazabicyclo[3.3.1]nonane] was tested, and the Ki [3, 5] was 400 nM and the Ki [1, 4] was 62 nM.

With `FCCCOc1cc(N2CC3CNCC(C2)O3)cnc1Cl` [3-(5-(3-fluoropropoxy)-6-chloropyridin-3-yl)-9-oxa-3,7-diazabicyclo[3.3.1]nonane] the Ki [3] was 0.73 nM, the Ki [1, 4] was 0.38 nM and the Ki [2] was 1900 nM.

`FCCCCOc1cc(N2CC3CNCC(C2)O3)cnc1Cl` [3-(5-(4-fluorobutoxy)-6-chloropyridin-3-yl)-9-oxa-3,7-diazabicyclo[3.3.1]nonane] was tested, and the Ki [3] was 0.35 nM, the Ki [1, 4] was 0.3 nM and the Ki [2] was 1500 nM.

Work on `Brc1cncc(N2CC3CNCC(C2)O3)c1` [3-(5-bromopyridin-3-yl)-9-oxa-3,7-diazabicydo[3.3.1]nonane] yielded a Ki [3] of 2.7 nM and a Ki [1, 4] of 2.1 nM.

`CN1CC2CN(c3cncc(Cl)c3)CC(C1)O2` [3-(5-chloropyridin-3-yl)-7-methyl-9-oxa-3,7-diazabicyclo[3.3.1]nonane] showed a Ki [3, 5] of 1600 nM and a Ki [1, 4] of 77 nM.

In the case of `CN1CC2CN(c3cncc(C#N)c3)CC(C1)O2` [3-(5-cyanopyridin-3-yl)-7-methyl-9-oxa-3,7-diazabicyclo[3.3.1]nonane], the Ki [1, 4] is reported as 260 nM.

`[O-][n+]1cc(F)cc(N2CC3CNCC(C2)O3)c1` [3-(5-fluoro-pyridine-1-oxide-3-yl)-9-oxa-3,7-diazabicyclo[3.3.1]nonane] showed a Ki [1, 4] of 590 nM and a Ki [2] of 54000 nM.

Work on `COc1cc(N2CC3CNCC(C2)O3)cnc1Cl` [3-(5-methoxy-6-chloropyridin-3-yl)-9-oxa-3,7-diazabicyclo[3.3.1]nonane] yielded a Ki [3] of 1 nM and a Ki [1, 4] of 0.4 nM.

In the case of `CN1CC2CN(c3ccc(Cl)nn3)CC(C1)O2` [3-(6-chloropyridazin-3-yl)-7-methyl-9-oxa-3,7-diazabicyclo[3.3.1]nonane], the Ki [1, 4] is reported as 29000 nM.

In the case of `CN1CC2CN(c3ccc(Cl)nc3)CC(C1)O2` [3-(6-chloropyridin-3-yl)-7-methyl-9-oxa-3,7-diazabicyclo[3.3.1]nonane], the Ki [3, 5] is reported as 1800 nM and the Ki [1, 4] is reported as 120 nM.

`CN(C)c1ccc(N2CC3CNCC(C2)O3)cn1` [3-(6-dimethylaminopyridin-3-yl)-9-oxa-3,7-diazabicyclo[3.3.1]nonane] showed a Ki [1, 4] of 1200 nM.

`CN1CC2CN(c3ccc(F)nc3)CC(C1)O2` [3-(6-fluoropyridin-3-yl)-7-methyl-9-oxa-3,7-diazabicyclo[3.3.1]nonane] gave a Ki [3, 5] of 1100 nM and a Ki [1, 4] of 140 nM.

`COc1ccc(N2CC3CNCC(C2)O3)cn1` [3-(6-methoxypyridin-3-yl)-9-oxa-3,7-diazabicyclo[3.3.1]nonane] was tested, and the Ki [1, 4] was 200 nM.

Work on `Cc1ccc(N2CC3CN(C)CC(C2)O3)cn1` [3-(6-methylpyridin-3-yl)-7-methyl-9-oxa-3,7-diazabicyclo[3.3.1]nonane] yielded a Ki [3, 5] of 1700 nM and a Ki [1, 4] of 150 nM.

`c1ccc(-c2ccc(N3CC4CNCC(C3)O4)nn2)cc1` [3-(6-phenylpyridazin-3-yl)-9-oxa-3,7-diazabicyclo[3.3.1]nonane] showed a Ki [1, 4] of 380 nM.

Work on `CN1CC2CN(c3ccc(C(F)(F)F)nc3)CC(C1)O2` [3-(6-trifluoromethyl-pyridin-3-yl)-7-methyl-9-oxa-3,7-diazabicyclo[3.3.1]nonane] yielded a Ki [1, 4] of 1000 nM.

With `c1ccc(N2CC3CNCC(C2)O3)nc1` [3-(pyridin-2-yl)-9-oxa-3,7-diazabicyclo[3.3.1]nonane] the Ki [3, 5] was 350 nM and the Ki [1, 4] was 100 nM.

Work on `CN1CC2CN(c3cncnc3)CC(C1)O2` [3-(pyrimidin-5-yl)-7-methyl-9-oxa-3,7-diazabicyclo[3.3.1]nonane] yielded a Ki [1, 4] of 270 nM.

`CN1CC2CN(c3cnc(Cl)c(Cl)c3)CC(C1)O2` [3-methyl-7-(5,6-dichloropyridin-3-yl)-9-oxa-3,7-diazabicyclo[3.3.1]nonane] showed a Ki [3] of 33 nM and a Ki [1, 4] of 24 nM.
